Data set [1] relates to intergenotypic HCVcc chimeras. The experiment in a line: Cell-to-cell spread of intergenotypic HCVcc chimeras in non-growing Huh7-1 cells. It counts as cell-based, Hepatitis C virus (HCV). The text has this:
To determine if ezetimibe might be an effective therapeutic for inhibiting HCV spread of other HCV genotypes, intergenotypic HCVcc chimeras were used, in which the core through E2 region of the JFH-1 clone had been replaced with analogous regions of various HCV genotypes including H77C, J4, J8, ED43, SA13, HK6A and QC69 (Gottwein, et al. (2009) Hepatology 49(2):364-77). Again, to avoid issues of cell division, non-growing Huh7-1 cells were infected with the different chimeric viruses, and after 16 hours, the cells were washed and 0 μM or 30 μM ezetimibe was added to parallel cultures. Since the chimeras encode unique E2 proteins and thus may have differing sensitivity to inhibition by the anti-E2 antibody, in this experiment methyl cellulose was added to all cultures as an alternative means of minimizing cell-free virus spread. Seventy-two hours post-infection, the cells were fixed and stained with an antibody to HCV NS5A to detect the size of the foci formed. In all cases, the size of foci formed by each chimera were reduced in the presence of ezetimibe relative to the mock-treated control culture confirming not only that all of these genotypes use the NPC1L1 receptor for cell-to-cell spread, but that the spread of all the chimeric viruses can be inhibited by ezetimibe.
To determine if naringenin affects spread of any of the other HCV genotypes, non-growing Huh7-1 cells were infected with the different intergenic chimeric viruses and after 16 hours, the cells were washed and naringenin was added. Methyl cellulose was added to each well to prevent cell-free virus spread. In parallel, a control set of wells was treated with methyl cellulose alone. Five days post-infection, the cells were fixed and stained to detect the number of HCV NS5A-positive cells.

Another data set has as its system HCVcc. As to the kind of experiment: HCV cell-to-cell spread, foci-size assay with cell-free spread blocked by anti-E2 antibody. It counts as cell-based, Hepatitis C virus (HCV). How it is done:
Using an established antibody blocking approach (Timpe, et al. (2008) Hepatology 47:17-24), in which an antibody to the HCV E2 glycoprotein is used to block cell-free virus spread, the role of NPC1L1, CD81, or claudin-1 in cell-to-cell spread was tested. Briefly, subconfluent Huh7 cells were inoculated with HCVcc at a low multiplicity of infection (MOI) of 0.01 ffu/cell for 15 hours to allow sufficient time for initial viral entry into the primary cells (Sabahi, et al. (2010) Virology 407:110-9). Cells were then washed and cell-free virus spread was blocked by addition of an anti-E2 antibody at a concentration which neutralizes extracellular virus infection of cells. In parallel, cultures were co-treated with antibodies to CD81, Claudin-1 or NPC1L1 to determine if blocking of these factors prevents cell-to-cell spread. At seventy two hours post-infection, monolayers were fixed and stained for HCV-positive foci. Spread was determined by the size of the foci, as quantified by the number of cells per foci. Foci composed of 1-2 HCV E2-positive cells, which could have formed via cell division, were scored as infections that had not spread cell-to-cell, and are referred to as one-two cell foci, and represent a baseline for the assay. Foci containing […] cells were scored as infections that had successfully spread cell-to-cell, and are referred to as multicellular foci.
To confirm the role of NPC1L1 in HCV spread and verify that ezetimibe inhibits HCV cell-to-cell spread, Huh7-1 cells were inoculated with HCV JFH-1 at an MOI of 0.01 for 16 hours to allow cell-free entry to initiate infection in a small percentage of cells, before being washed and then incubated with increasing concentrations of ezetimibe. Once again extracellular HCV entry was blocked by the addition of anti-E2 antibody to neutralize cell-free virus in all cultures. […] Cells were fixed at 72 hours post-infection, and then stained to detect the number and the size of the E2-positive foci. The foci were counted and scored as one-two cell foci or as multicellular foci. […] To ensure that multicellular foci were not a result of cell division over the time course of the experiment, the same experiment was repeated in non-growing Huh7-1 cells and similar results were obtained.
Because HCV cell-free spread requires the production and secretion of infectious viral particles from infected cells, an alternative way to block cell-free virus spread is to prevent the release of infectious virus from already infected cells. […] It was of interest to determine whether the VLDL secretory pathway and related virion lipid modifications are required for cell-to-cell spread. […]

The test system of data set [2] is HCV genotype 1b subgenomic replicon. As to the kind of experiment: HCV sg1b replicon RNA replication in Huh7 cells, RT-qPCR. It counts as cell-based, Hepatitis C virus (HCV). The following applies: increasing doses, 72 hours.
The next data set has as its system Huh7 cells. As to the kind of experiment: Cytotoxicity assay (adenylate kinase release, TOXILIGHT). It counts as cell-based, human. The text has this: The […] Plus Cell Proliferation assay kit (Lonza, Walkersville, Md.), which incorporates bioluminescent detection of cellular ATP as a measure of cell viability and proliferation, was used according to the manufacturer's instructions. Briefly, mock-treated and drug-treated cultures were lysed in Cell Lysis reagent for […]. One hundred μl of culture medium was transferred to white 96-well plates (BD Biosciences) containing ATP detection reagent and luminescence, expressed as relative light units (RLU), was measured (Fluostar OPTIMA). To assess drug-induced cellular toxicity, a bioluminescence-based assay (The TOXILIGHT BioAssay Kit, Lonza) that measures adenylate kinase (AK) released from damaged cells was used as per the manufacturer's instructions. […] One hundred μl of AK detection reagent was then added to each well, and luminescence (RLU) was measured (Fluostar OPTIMA).
To ensure that the inhibition observed was not due to ezetimibe-induced changes in cell proliferation or cytotoxicity, cellular ATP was measured as a read-out of Huh7 cell viability and proliferation and cellular toxicity by adenylate kinase release following treatment with increasing doses of ezetimibe. […] Furthermore, to test the specificity of the observed HCV inhibition, the effect of ezetimibe on entry of another flavivirus, Dengue virus (DNV), was assessed.

Entries after “also recorded” stand apart in the source; their conditions may differ.

Consider `O=C1C[C@@H](c2ccc(O)cc2)Oc2cc(O)cc(O)c21` [naringenin], for which the “size of foci, J8/JFH-1 (2B/JFH-1) chimera” value in data set [1] (J8/JFH-1 chimera) is given as “reduced the size of foci”. Also, in data set [1] (all chimeric viruses except J8/JFH-1, five days post-infection), the “cell-to-cell spread of chimeric viruses” value is recorded as “not inhibited”. Also, the “HCV cell-to-cell spread (number and size of foci)” value with HCVcc (non-growing Huh7-1 cells, five days post-infection, vs vehicle) was “inhibition of cell-to-cell spread was not detected”.

In the case of `O=C1[C@H](CC[C@H](O)c2ccc(F)cc2)[C@@H](c2ccc(O)cc2)N1c1ccc(F)cc1` [ezetimibe, 1-(4-fluorophenyl)-(3R)-[3-(4-fluorophenyl)-(3S)-hydroxypropyl]-(45)-(4-hydroxyphenyl)-2-azetidinone], the “sg1b HCV RNA steady-state levels” value in data set [2] is given as “did not inhibit HCV subgenomic RNA replication; also recorded: no significant reduction”. Moreover, the “size of foci formed by each chimera” value in data set [1] (30 μM, methyl cellulose, 72 hours post-infection, relative to mock-treated) is “reduced”. In addition, the size of foci entry in the data set on HCVcc (30 μM added post-viral inoculation) is recorded as “foci of 1-2 cells”. Moreover, in the data set on HCVcc (added post-infection, 24 hours post-infection), the “number of independent infection initiation events (foci of 1-2 E2-positive cells)” value is reported as “did not block infection”. Also, the “size of the E2-positive foci formed” value in the data set on HCVcc (increasing concentrations added post-inoculation, 72 hours post-infection) is listed as “dose-dependent inhibition”. For the same molecule, the “cellular toxicity (adenylate kinase release)” value in the data set with Huh7 cells (increasing doses) is reported as “did not inhibit cell proliferation or induce cellular toxicity”. Besides, in the data set on Huh7 cells (treatment of Huh7 cells for 12 hours, concentrations tested), the cytotoxicity result is given as “not cytotoxic”.

The record behind these values is patent US9034863B2, “Compositions and methods for inhibiting entry of a hepatic virus” (The Board of Trustees of the University of Illinois, priority 2008, dated 2015).
